Data as given in US6573271B2, “Method of preventing proliferation of retinal pigment epithelium by retinoic acid receptor agonists” (John Hopkins University School of Medicine, priority 1995, dated 2003).

Columns and labels:
[1] = tested on: human RPE cells; assay: [3H]thymidine incorporation / proliferation of cultured human RPE cells; details: for effect on RPE cell proliferation, agent alone: FIG. 3, alone
From the text: Primary cultures of human retinal pigment epithelium (RPE) cells were established from eyes obtained from the Old Dominion Eye Bank (Richmond, Va.) or the Eye Bank of Maryland (Baltimore, Md.) using the technique described in P. A. Campochiaro, et al., Invest.
For [3H]thymidine incorporation, RPE cells at passage 3 or 4 were lightly trypsinized and plated in 16-mm wells of 24-well plates. The transfected cells were allowed to attach overnight and then the media containing 5% fetal bovine serum (FBS) were supplemented with retinoids or vehicle alone. Stock solutions (10^−3M) of retinoids were prepared in dimethylsulfoxide (DMSO) and stored as frozen aliquots until used; the highest final concentration of DMSO was 0.1% and was also used for control cultures. The media containing freshly prepared retinoids were changed every three days. At 7 or 10 days 2 μCi/ml of [^3H]thymidine (specific activity, 6.7 Ci/mM; New England Nuclear, Boston, Mass.) was added to the cultures and incorporation was measured as previously described (Leschey, supra).
The potency of retinoid agonists for inhibition of serum stimulated DNA synthesis in human RPE cells was tested. […] The cells were shifted to serum-free media containing the same concentration of retinoid and then pulsed with 10% serum for 18 hours, after which [^3H]thymidine incorporation was measured. Thymidine incorporation for cells grown in control medium was used to calculate the percent inhibition of thymidine incorporation induced by four concentrations of each retinoid (each concentration tested in triplicate) which were then used to generate each line.

[2] = tested on: traction retinal detachment in rabbits; assay: Traction retinal detachment in rabbits after human RPE cells, subconjunctival injection; assay type: in vivo, rabbit; details: subconjunctival 0.3 mg once a day for five days
From the text: Due to the toxicity of certain RAR agonists and because the effects of retinoids are delayed in onset and reversible, methods for sustained release of the retinoids were investigated. […] The therapeutic effect of the RAR specific agonists was greater than that of RA, which is an agonist for both RXRs and RARs. There were no signs of any toxicity to the retina.

[3] = tested on: traction retinal detachment in rabbits; assay: Traction retinal detachment in rabbits after human dermal fibroblasts, subconjunctival injection
[4] = tested on: traction retinal detachment in rabbits; assay: Traction retinal detachment in rabbits after human dermal fibroblasts, subconjunctival lipid microvesicles; assay type: in vivo, rabbit; details: for % Any RD / % Total RD / RD at 7 Days, Partial / RD at 7 Days, Total / RD at 14 Days, Partial / RD at 14 Days, Total / RD at 28 Days, Partial / RD at 28 Days, Total: human dermal fibroblasts
[5] = tested on: traction retinal detachment in rabbits; assay: Traction retinal detachment in rabbits after human RPE cells, intravitreal injection of 168 and 299; assay type: in vivo, rabbit
[6] = tested on: traction retinal detachment in rabbits; assay: Traction retinal detachment in rabbits after human dermal fibroblasts, intravitreous lipid microvesicles; details: for % Any RD / % Total RD / RD at 7 Days, Partial / RD at 7 Days, Total / RD at 14 Days, Partial / RD at 14 Days, Total / RD at 28 Days, Partial / RD at 28 Days, Total: human dermal fibroblasts
From the text: In this experiment the retinoid was incorporated into lipid microvesicles utilizing standard techniques.

[7] = tested on: RPE cells; assay: RPE cell morphology after 10 days in retinoid; assay type: cell-based, human; details: 1 μm, 5% serum, on plastic
[8] = molecular target: T1, RXRα (Homo sapiens, UniProt P19793); assay: Transactivation, ER/RXR-α hybrid receptor + ERE-CAT reporter cotransfected in HeLa cells
T1 sequence (P19793 227-458 limits assumed): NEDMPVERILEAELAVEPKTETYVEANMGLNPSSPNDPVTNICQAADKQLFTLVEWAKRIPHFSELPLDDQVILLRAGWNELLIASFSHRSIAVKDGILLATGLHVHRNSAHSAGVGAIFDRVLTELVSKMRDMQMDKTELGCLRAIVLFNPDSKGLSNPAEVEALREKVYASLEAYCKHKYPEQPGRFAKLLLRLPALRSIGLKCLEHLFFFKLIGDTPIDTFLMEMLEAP

[9] = tested on: retinas of the rabbits; assay: Ocular toxicity after single intravitreous injection, histopathology of retina; assay type: in vivo, rabbit; details: single intravitreous injection of 100 μg, two weeks after injection
From the text: The rabbits were killed two weeks after injection.

[10] = tested on: rabbit cell injection model of PVR; assay: Rabbit cell injection model of PVR (RPE cells), intravitreous injection of retinoids; assay type: in vivo; details: for Any RD (%) / Total RD (%): 28 Days
Experimental: Briefly, pigmented rabbits were anesthetized with a subcutaneous injection of 5 mg/kg of xylazine and 25 mg/kg of ketamine, and the pupil of one eye was dilated with 2½% phenylephrine. Under direct observation 5×10^5 RPE cells were injected into the vitreous cavity just anterior to the optic nerve. […] .
Rabbits were examined by indirect ophthalmoscopy on days 7, 14 and 28 and traction retinal detachments were graded. […] . The localized clouds decreased in size and cleared over 2 to 3 weeks. There were no visible changes in the retina. […] .
It was felt that the hair loss and possibly the loss of appetite and death were due to systemic toxicity from drug that had gotten out of the eye. […] . None of the rabbits experienced hair loss and none died; their appetites appeared to be normal.

[11] = Homo sapiens, RPE, read-out: Percent Inhibition of [3H]thymidine incorporation in RPE cells
[12] = 50 μg, single intravitreous injection
[13] = 100 μg intravitreous, two injections (day 1 and day 2 after cell injection)
[14] = 100 μg intravitreous, two injections

SMILES: CC1=C(/C=C/C(C)=C/C=C/C(C)=C\C(=O)O)C(C)(C)CCC1 [13-cis RA, 13-cis-retinoic acid, reference compound]
- IC50 ([1]; read-out: RPE 148 IC50 (50% inhibition of RPE cell growth relative to mock treated RPE cells), measured as in Example 2): 0.03 µM

SMILES: CCOC(=O)c1ccc(C#Cc2ccc3c(c2)C(C)(C)CCS3)nc1 [Compound 168, ethyl 6-[2-(4,4-dimethylthiochroman-6-yl)ethynyl]nicotinate]
- % Any RD [2]: 16%
- % Total RD [2]: 16%
- RD at 7 Days, Partial [2]: 0
- RD at 7 Days, Total [2]: 0
- RD at 14 Days, Partial [2]: 0
- RD at 14 Days, Total [2]: 0
- RD at 28 Days, Partial [2]: 1
- RD at 28 Days, Total [2]: 0
- % Any RD [3]: 60%
- % Total RD [3]: 20%
- RD at 7 Days, Partial [3]: 0
- RD at 7 Days, Total [3]: 0
- RD at 14 Days, Partial [3]: 0
- RD at 14 Days, Total [3]: 0
- RD at 28 Days, Partial [3]: 4
- RD at 28 Days, Total [3]: 2
- effect on retinal detachments [3]: decreased the number of retinal detachments and slowed the rate at which they developed
- inhibition of tractional retinal detachment [4]: substantially more effective at inhibiting tractional retinal detachment
- % Any RD [4]: 33%
- % Total RD [4]: 33%
- RD at 7 Days, Partial [4]: 0
- RD at 7 Days, Total [4]: 0
- RD at 14 Days, Partial [4]: 1
- RD at 14 Days, Total [4]: 0
- RD at 28 Days, Partial [4]: 0
- RD at 28 Days, Total [4]: 2
- % Any RD [5]: 80%
- % Total RD [5]: 8%
- RD at 7 Days, Partial [5]: 1
- RD at 7 Days, Total [5]: 0
- RD at 14 Days, Partial [5]: 1
- RD at 14 Days, Total [5]: 0
- RD at 28 Days, Partial [5]: 7
- RD at 28 Days, Total [5]: 1
- prevention of traction retinal detachment [6]: very effective in preventing traction retinal detachment
- % Any RD [6]: 29%
- % Total RD [6]: 29%
- RD at 7 Days, Partial [6]: 0
- RD at 7 Days, Total [6]: 0
- RD at 14 Days, Partial [6]: 0
- RD at 14 Days, Total [6]: 0
- RD at 28 Days, Partial [6]: 0
- RD at 28 Days, Total [6]: 2

SMILES: C/C(=C\c1ccc(C(=O)O)cc1)c1ccc2c(c1)C(C)(C)CCC2(C)C [Compound 183, p-[(E)-2-(5,6,7,8-tetrahydro-5,5,8,8-tetramethyl-2-naphthyl)propenyl]-benzoic acid]
- inhibition at 0.05 µM [1, 11]: 76.7%
- inhibition at 0.1 µM [1, 11]: 98.6%
- inhibition at 1 µM [1, 11]: 98.8%
- inhibition of RPE cell proliferation ([1]; comment on Table 3): effective inhibitors of RPE cell proliferation
- RPE cell morphology / cell overgrowth [7]: prevented cell overgrowth
- EC50 [8]: 15 µM
- photoreceptor degeneration, histopathology [9]: Occasional focal areas of photoreceptor degeneration were seen in one eye
- Partial RD at 14 Days (number of eyes) [10, 12]: 1
- Partial RD at 28 Days (number of eyes) [10, 12]: 1
- Total RD at 14 Days (number of eyes) [10, 12]: 2
- Total RD at 28 Days (number of eyes) [10, 12]: 2
- Any RD (%) [10, 12]: 33+ %
- Total RD (%) [10, 12]: 22%
- Partial RD at 14 Days (number of eyes) [10, 13]: 0
- Partial RD at 28 Days (number of eyes) [10, 13]: 0
- Total RD at 14 Days (number of eyes) [10, 13]: 0
- Total RD at 28 Days (number of eyes) [10, 13]: 0
- Any RD (%) [10, 14]: 0++ %
- Total RD (%) [10, 14]: 0%
- frequency and severity of traction retinal detachments versus vehicle ([10]; initial group, intravitreous injections of 100 μg): None of these rabbits developed retinal detachments
- frequency and severity of retinal detachments versus control ([10]; single intravitreous injection one day after RPE cell injection): fewer (p(0.05) and less severe retinal detachments
- deaths before completion of the 28 day observation period ([10]; two intravitreous injections of 100 μg, five rabbits): two rabbits died

SMILES: CC1(C)CCOc2ccc(C#Cc3ccc(C(=O)O)cn3)cc21 [Compound 299, 6-[2-(4,4-dimethylchroman-6-yl)ethynyl]nicotinic acid]
- % Any RD [2]: 0%
- % Total RD [2]: 0%
- RD at 7 Days, Partial [2]: 0
- RD at 7 Days, Total [2]: 0
- RD at 14 Days, Partial [2]: 0
- RD at 14 Days, Total [2]: 0
- RD at 28 Days, Partial [2]: 0
- RD at 28 Days, Total [2]: 0
- % Any RD [3]: 40%
- % Total RD [3]: 0%
- RD at 7 Days, Partial [3]: 0
- RD at 7 Days, Total [3]: 0
- RD at 14 Days, Partial [3]: 0
- RD at 14 Days, Total [3]: 0
- RD at 28 Days, Partial [3]: 4
- RD at 28 Days, Total [3]: 0
- effect on retinal detachments [3]: decreased the number of retinal detachments and slowed the rate at which they developed
- % Any RD [4]: 63%
- % Total RD [4]: 50%
- RD at 7 Days, Partial [4]: 0
- RD at 7 Days, Total [4]: 0
- RD at 14 Days, Partial [4]: 0
- RD at 14 Days, Total [4]: 1
- RD at 28 Days, Partial [4]: 1
- RD at 28 Days, Total [4]: 4
- % Any RD [5]: 80%
- % Total RD [5]: 40%
- RD at 7 Days, Partial [5]: 0
- RD at 7 Days, Total [5]: 0
- RD at 14 Days, Partial [5]: 1
- RD at 14 Days, Total [5]: 1
- RD at 28 Days, Partial [5]: 4
- RD at 28 Days, Total [5]: 4
- prevention of traction retinal detachment [6]: not effective
- % Any RD [6]: 100%
- % Total RD [6]: 100%
- RD at 7 Days, Partial [6]: 0
- RD at 7 Days, Total [6]: 0
- RD at 14 Days, Partial [6]: 0
- RD at 14 Days, Total [6]: 0
- RD at 28 Days, Partial [6]: 0
- RD at 28 Days, Total [6]: 3

SMILES: C=C1/C(=C\C=C2/CCC[C@]3(C)[C@@H]([C@H](C)CCCC(C)(C)O)CC[C@@H]23)C[C@@H](O)C[C@@H]1O [Compound D3, 1,25-dihydroxyvitamin D3, reference compound]
- effect on RPE cell proliferation, agent alone [1]: did not

SMILES: N[C@@H](Cc1cc(I)c(Oc2ccc(O)c(I)c2)c(I)c1)C(=O)O [Compound T3, reference compound]
- effect on RPE cell proliferation, agent alone [1]: did not
